In patent US20250026721A1, “COMPOUNDS AND METHODS FOR MODULATING RAS-PI3K” (Vividion Therapeutics, Inc., priority 2023, published 2025):

Molecular target: T1, PIK3CA_C242 (Homo sapiens, UniProt P42336)
T1 construct: endogenous in cells; host or cells: Jurkat cell lysate
Experiment: Proteomic TE50 (IA-DTB / TMT mass spectrometry) in Jurkat cell lysate
Type: binding
Details: 1 hour at rt, 7-point dose response
Experimental: Example 4. Proteomic TE50 In vitro TE50 values for PIK3CA_C242 were obtained by treating 500 μg of cell lysate generated from Jurkat cells with DMSO or compound for 1 hour at rt followed by the addition of 200 μM desthiobiotin polyethyleneoxide iodoacetamide (IA-DTB) in DMSO for one hour at rt. Compounds were serially diluted 1:5 for a total of 7 points in order to generate dose response curves. Samples were then precipitated by the addition of 8× ice cold acetone and incubated at -80° C. for two hours. Protein was then pelleted by centrifugation (4,200 RPM, 45 min, 4° C.). The pelleted material was resuspended in 9M urea, 50 mM ammonium bicarbonate and proteins were reduced and alkylated by the addition of DTT and iodoacetamide (10 and 30 mM, respectively). Following reduction and alkylation, samples were exchanged into 2M urea (Zeba spin desalting plates, Thermo Fisher) and digested with Trypsin. IA-DTB labeled peptides were isolated with streptavidin agarose resin. Enriched peptides were eluted by the addition of 50% acetonitrile (ACN) 0.1% formic acid (FA) and dried in a SpeedVac vacuum concentrator. […] Reactions were quenched by the addition of 6.5 μL of 5% hydroxylamine. Samples were then combined and desalted on a Evolute express ABN plate (Biotage, 600-0010-PX01). Targeted TMT measurements were collected using an Orbitrap Lumos Tribrid Mass Spectrometer (Thermo Scientific) coupled to an UltiMate 3000 Series Rapid Separation LC system and autosampler (Thermo Scientific Dionex). Peptides were eluted onto a custom C18 capillary analytical column (75-μm inner diameter fused silica, packed with Acclaim PepMap C18 resin; Thermo Scientific) using an Acclaim PepMap 100 (Thermo 164535) loading column, and separated at a flow rate of […]. Data were acquired using a specific MS3-based TMT method targeting the peptide containing […], +2 charge state) where MS2 peptide fragmentation is triggered upon detection of the peptide precursor ion. Subsequent MS3 analysis was then performed using pre-selected peptide fragment ions that were isolated for fragmentation using synchronous precursor selection. RAW files were converted to MZXML format and searched with the SEQUEST algorithm using the […] software package. TMT quantitation was performed with a filter requiring at least ten summed signal-to-noise (S/N) for control channels. TE50 values were calculated from 7-point dose response curves created using the reporter ion S/N for each channel.

T1 sequence (P42336 whole entry): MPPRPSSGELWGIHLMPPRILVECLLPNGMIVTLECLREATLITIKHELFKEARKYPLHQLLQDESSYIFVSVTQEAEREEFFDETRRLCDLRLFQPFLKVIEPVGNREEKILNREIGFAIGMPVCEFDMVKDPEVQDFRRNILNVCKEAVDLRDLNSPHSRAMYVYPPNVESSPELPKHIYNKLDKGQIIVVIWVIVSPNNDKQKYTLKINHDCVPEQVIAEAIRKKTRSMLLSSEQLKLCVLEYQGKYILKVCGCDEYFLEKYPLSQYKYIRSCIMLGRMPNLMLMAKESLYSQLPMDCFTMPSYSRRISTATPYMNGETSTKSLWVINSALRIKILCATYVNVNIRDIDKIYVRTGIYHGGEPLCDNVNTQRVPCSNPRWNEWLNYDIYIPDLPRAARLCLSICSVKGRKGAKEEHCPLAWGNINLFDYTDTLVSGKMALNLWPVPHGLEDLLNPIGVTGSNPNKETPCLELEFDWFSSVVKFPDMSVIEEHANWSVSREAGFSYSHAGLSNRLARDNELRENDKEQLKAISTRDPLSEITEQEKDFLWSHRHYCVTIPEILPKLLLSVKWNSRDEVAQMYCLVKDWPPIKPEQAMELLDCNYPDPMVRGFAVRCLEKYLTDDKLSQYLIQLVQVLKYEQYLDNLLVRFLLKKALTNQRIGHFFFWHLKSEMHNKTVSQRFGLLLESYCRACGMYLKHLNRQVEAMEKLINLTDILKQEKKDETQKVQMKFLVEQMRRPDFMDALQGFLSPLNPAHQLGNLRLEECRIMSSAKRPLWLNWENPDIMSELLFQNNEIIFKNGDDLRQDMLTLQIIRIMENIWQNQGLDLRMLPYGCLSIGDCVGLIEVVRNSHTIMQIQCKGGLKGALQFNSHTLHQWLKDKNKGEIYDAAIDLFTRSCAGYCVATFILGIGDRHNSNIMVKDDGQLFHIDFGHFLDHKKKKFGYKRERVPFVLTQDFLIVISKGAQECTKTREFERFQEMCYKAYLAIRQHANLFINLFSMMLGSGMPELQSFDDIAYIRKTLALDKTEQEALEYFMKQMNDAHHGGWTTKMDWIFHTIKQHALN
T1 sequence (P27986 whole entry partner): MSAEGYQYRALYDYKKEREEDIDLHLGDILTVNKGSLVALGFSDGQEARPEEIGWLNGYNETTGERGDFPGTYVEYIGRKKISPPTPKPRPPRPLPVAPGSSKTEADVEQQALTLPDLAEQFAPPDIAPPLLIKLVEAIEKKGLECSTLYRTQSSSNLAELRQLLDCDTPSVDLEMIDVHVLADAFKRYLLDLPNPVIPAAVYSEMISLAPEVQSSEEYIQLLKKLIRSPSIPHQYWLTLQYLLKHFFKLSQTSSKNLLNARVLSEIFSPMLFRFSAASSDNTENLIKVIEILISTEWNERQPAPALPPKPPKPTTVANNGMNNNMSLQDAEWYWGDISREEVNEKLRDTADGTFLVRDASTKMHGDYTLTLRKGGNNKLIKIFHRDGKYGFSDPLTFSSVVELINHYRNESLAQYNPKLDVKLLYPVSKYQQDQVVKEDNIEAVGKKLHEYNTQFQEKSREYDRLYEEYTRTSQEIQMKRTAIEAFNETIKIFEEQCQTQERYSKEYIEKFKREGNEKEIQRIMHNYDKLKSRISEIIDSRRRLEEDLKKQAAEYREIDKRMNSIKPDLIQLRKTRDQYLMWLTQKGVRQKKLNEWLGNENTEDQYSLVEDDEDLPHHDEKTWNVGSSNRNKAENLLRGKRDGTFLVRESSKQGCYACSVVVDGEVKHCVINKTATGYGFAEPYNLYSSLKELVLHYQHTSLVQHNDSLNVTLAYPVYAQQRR

| IC50 [nM] | Structure (SMILES) |
| --- | --- |
| 410 | COc1cccc(-c2cc(N(C)C)ccc2S(=O)(=O)N2CCC(F)(C(=O)NC/C=C/S(C)(=O)=O)CC2)c1 [Compound 96, (E)-1-((5-(dimethylamino)-3′-methoxy-[1,1′-biphenyl]-2-yl)sulfonyl)-4-fluoro-N-(3-(methylsulfonyl)allyl)piperidine-4-carboxamide] |
| 370 | CN(C)c1ccc(S(=O)(=O)N2CCC(F)(C(=O)NC/C=C/C#N)CC2)c(-c2ccccc2Cl)c1 [Compound 97, (E)-1-((2′-chloro-5-(dimethylamino)-[1,1′-biphenyl]-2-yl)sulfonyl)-N-(3-cyanoallyl)-4-fluoropiperidine-4-carboxamide] |
| 520 | C[C@H](/C=C\S(C)(=O)=O)NC(=O)C1(F)CCN(S(=O)(=O)c2ccc(C3CCC3)cc2-c2ccccc2Cl)CC1 [Compound 98, (R,Z)-1-((2′-chloro-5-cyclobutyl-[1,1′-biphenyl]-2-yl)sulfonyl)-4-fluoro-N-(4-(methylsulfonyl)but-3-en-2-yl)piperidine-4-carboxamide] |
| 830 | C[C@H](/C=C\S(C)(=O)=O)NC(=O)C1(F)CCN(S(=O)(=O)c2ccc(C3CN(C(=O)OC(C)(C)C)C3)cc2-c2ccccc2Cl)CC1 [Compound 99, tert-butyl (R,Z)-3-(2′-chloro-6-((4-fluoro-4-((4-(methylsulfonyl)but-3-en-2-yl)carbamoyl)piperidin-1-yl)sulfonyl)-[1,1′-biphenyl]-3-yl)azetidine-1-carboxylate] |
| 860 | C[C@H](/C=C\S(C)(=O)=O)NC(=O)C1(F)CCN(S(=O)(=O)c2ccc(OC3CC3)cc2-c2ccccc2Cl)CC1 [Compound 101, (R,Z)-1-((2′-chloro-5-cyclopropoxy-[1,1′-biphenyl]-2-yl)sulfonyl)-4-fluoro-N-(4-(methylsulfonyl)but-3-en-2-yl)piperidine-4-carboxamide] |
| 830 | Cc1ccccc1-c1cc(OC(C)C)ccc1S(=O)(=O)N1CCC(F)(C(=O)N[C@H](C)/C=C\S(C)(=O)=O)CC1 [Compound 103, (R,Z)-4-fluoro-1-((5-isopropoxy-2′-methyl-[1,1′-biphenyl]-2-yl)sulfonyl)-N-(4-(methylsulfonyl)but-3-en-2-yl)piperidine-4-carboxamide] |
| 620 | C[C@H](/C=C\S(C)(=O)=O)NC(=O)C1(F)CCN(S(=O)(=O)c2ccc(O)cc2-c2ccccc2Cl)CC1 [Compound 104, (R,Z)-1-((2′-chloro-5-hydroxy-[1,1′-biphenyl]-2-yl)sulfonyl)-4-fluoro-N-(4-(methylsulfonyl)but-3-en-2-yl)piperidine-4-carboxamide] |
| 780 | CC(C)Oc1ccc(S(=O)(=O)N2CCC(F)(C(=O)N[C@H](C)/C=C\S(C)(=O)=O)CC2)c(-c2ccccc2Cl)c1 [Compound 105, (R,Z)-1-((2′-chloro-5-isopropoxy-[1,1′-biphenyl]-2-yl)sulfonyl)-4-fluoro-N-(4-(methylsulfonyl)but-3-en-2-yl)piperidine-4-carboxamide] |
| 120 | C=Cc1ccc(S(=O)(=O)N2CCC(F)(C(=O)N[C@H](C)/C=C\S(C)(=O)=O)CC2)c(-c2ccccc2C)c1 [Compound 108, (R,Z)-4-fluoro-1-((2′-methyl-5-vinyl-[1,1′-biphenyl]-2-yl)sulfonyl)-N-(4-(methylsulfonyl)but-3-en-2-yl)piperidine-4-carboxamide] |
| 170 | CCc1ccc(S(=O)(=O)N2CCC(F)(C(=O)N[C@H](C)/C=C\S(C)(=O)=O)CC2)c(-c2ccccc2C)c1 [Compound 113, (R,Z)-1-((5-ethyl-2′-methyl-[1,1′-biphenyl]-2-yl)sulfonyl)-4-fluoro-N-(4-(methylsulfonyl)but-3-en-2-yl)piperidine-4-carboxamide] |
| 430 | C[C@H](/C=C\S(C)(=O)=O)NC(=O)C1(F)CCN(S(=O)(=O)c2ccc(N3CCN(C(=O)OC(C)(C)C)CC3)cc2-c2ccccc2Cl)CC1 [Compound 118, tert-butyl (R,Z)-4-(2′-chloro-6-((4-fluoro-4-((4-(methylsulfonyl)but-3-en-2-yl)carbamoyl)piperidin-1-yl)sulfonyl)-[1,1′-biphenyl]-3-yl)piperazine-1-carboxylate] |
| 250 | Cc1ccccc1-c1cc(N2CCCC2)ccc1S(=O)(=O)N1CCC(F)(C(=O)N[C@H](C)/C=C\S(C)(=O)=O)CC1 [Compound 120, (R,Z)-4-fluoro-1-((2′-methyl-5-(pyrrolidin-1-yl)-[1,1′-biphenyl]-2-yl)sulfonyl)-N-(4-(methylsulfonyl)but-3-en-2-yl)piperidine-4-carboxamide] |
| 209 | CC#Cc1ccc(S(=O)(=O)N2CCC(F)(C(=O)N[C@H](C)/C=C\S(C)(=O)=O)CC2)c(-c2ccccc2Cl)c1 [Compound 131, (R,Z)-1-((2′-chloro-5-(prop-1-yn-1-yl)-[1,1′-biphenyl]-2-yl)sulfonyl)-4-fluoro-N-(4-(methylsulfonyl)but-3-en-2-yl)piperidine-4-carboxamide] |
| 189 | COc1cc(-c2ccccc2Cl)c(S(=O)(=O)N2CCC(F)(C(=O)NC/C=C/S(C)(=O)=O)CC2)cn1 [Compound 188, (E)-1-((4-(2-chlorophenyl)-6-methoxypyridin-3-yl)sulfonyl)-4-fluoro-N-(3-(methylsulfonyl)allyl)piperidine-4-carboxamide] |
| 263 | COc1cc(-c2ccccc2C)c(S(=O)(=O)N2CCC(F)(C(=O)NC/C=C/S(C)(=O)=O)CC2)cn1 [Compound 189, (E)-4-fluoro-1-((6-methoxy-4-(o-tolyl)pyridin-3-yl)sulfonyl)-N-(3-(methylsulfonyl)allyl)piperidine-4-carboxamide] |
| 950 | COc1cc(-c2ccccc2)c(S(=O)(=O)N2CCC(F)(C(=O)NC/C=C/S(C)(=O)=O)CC2)cn1 [Compound 191, (E)-4-fluoro-1-((6-methoxy-4-phenylpyridin-3-yl)sulfonyl)-N-(3-(methylsulfonyl)allyl)piperidine-4-carboxamide] |
| 270 | COc1cc(-c2ccccc2Cl)c(S(=O)(=O)N2CCC(F)(C(=O)NC/C=C\C#N)CC2)cn1 [Compound 194, (Z)-1-((4-(2-chlorophenyl)-6-methoxypyridin-3-yl)sulfonyl)-N-(3-cyanoallyl)-4-fluoropiperidine-4-carboxamide] |
| 788 | COc1cccc(-c2cc(Cl)cnc2S(=O)(=O)N2CCC(F)(C(=O)N[C@@H](C)/C=C\S(C)(=O)=O)CC2)c1 [Compound 200, (S,Z)-1-((5-chloro-3-(3-methoxyphenyl)pyridin-2-yl)sulfonyl)-4-fluoro-N-(4-(methylsulfonyl)but-3-en-2-yl)piperidine-4-carboxamide] |
| 690 | COc1cccc(-c2ccccc2S(=O)(=O)N2CCC(F)(C(=O)NC/C=C/S(=O)(=O)C3CCN(C)CC3)CC2)c1 [Compound 228, (E)-4-fluoro-1-((3′-methoxy-[1,1′-biphenyl]-2-yl)sulfonyl)-N-(3-((1-methylpiperidin-4-yl)sulfonyl)allyl)piperidine-4-carboxamide] |
| 140 | COc1ccc(S(=O)(=O)N2CCC(F)(C(=O)N3CC(/C=C\S(C)(=O)=O)C3)CC2)c(-c2ccccc2Cl)c1 [Compound 230, (Z)-(1-((2′-chloro-5-methoxy-[1,1′-biphenyl]-2-yl)sulfonyl)-4-fluoropiperidin-4-yl)(3-(2-(methylsulfonyl)vinyl)azetidin-1-yl)methanone] |
| 703 | C[C@@H](/C=C\S(C)(=O)=O)NC(=O)C1(F)CCN(S(=O)(=O)c2ccc(Cl)cc2-c2cccc(Oc3ccccc3)c2)CC1 [Compound 267, (S,Z)-1-((5-chloro-3′-phenoxy-[1,1′-biphenyl]-2-yl)sulfonyl)-4-fluoro-N-(4-(methylsulfonyl)but-3-en-2-yl)piperidine-4-carboxamide] |
| 356 | C[C@@H](/C=C\S(C)(=O)=O)NC(=O)C1(F)CCN(S(=O)(=O)c2ccc(Cl)cc2-c2cccc(OCc3ccccc3)c2)CC1 [Compound 268, (S,Z)-1-((3′-(benzyloxy)-5-chloro-[1,1′-biphenyl]-2-yl)sulfonyl)-4-fluoro-N-(4-(methylsulfonyl)but-3-en-2-yl)piperidine-4-carboxamide] |
| 550 | COc1cccc(-c2cc(Cl)ncc2S(=O)(=O)N2CCC(F)(C(=O)N[C@@H](C)/C=C\S(C)(=O)=O)CC2)c1 [Compound 270, (S,Z)-1-((6-chloro-4-(3-methoxyphenyl)pyridin-3-yl)sulfonyl)-4-fluoro-N-(4-(methylsulfonyl)but-3-en-2-yl)piperidine-4-carboxamide] |
| 570 | C[C@H](/C=C\S(C)(=O)=O)NC(=O)C1(F)CCN(S(=O)(=O)c2cnc(O)cc2-c2ccccc2Cl)CC1 [Compound 276, (R,Z)-1-((4-(2-chlorophenyl)-6-hydroxypyridin-3-yl)sulfonyl)-4-fluoro-N-(4-(methylsulfonyl)but-3-en-2-yl)piperidine-4-carboxamide] |
